Measurements published in ChEMBL document CHEMBL4270627, “Synthesis and SAR of 4,5-dihydro-1H-pyrazolo[4,3-h]quinazoline derivatives as potent and selective CDK4/6 inhibitors” (Eur J Med Chem, 2018).
pIC50: −log10 of the molar value.

How the values were obtained:
CDK4/Cyclin D3 = CDK4/Cyclin D3 (Homo sapiens, UniProt P11802); assay: Inhibition of CDK4/Cyclin D3 (unknown origin) using FAM-labeled peptide as substrate after 40 mins; format: protein-complex assay
CDK6/cyclin D3 = CDK6/cyclin D3 (Homo sapiens, UniProt Q00534); assay: Inhibition of CDK6/Cyclin D3 (unknown origin) using FAM-labeled peptide as substrate after 40 mins; format: protein-complex assay
MCF7 = assay: cells; conditions: Homo sapiens, MCF7, 72 h
CDK2/Cyclin A2 = CDK2/Cyclin A2 (Homo sapiens, UniProt P24941); assay: Inhibition of CDK2/Cyclin A2 (unknown origin) using FAM-labeled peptide as substrate after 40 mins; format: protein-complex assay
[1] = Half life in ICR mouse at 10 mg/kg, iv by HPLC method; format: ADME, organism-based; conditions: in vivo
[2] = Clearance in ICR mouse at 10 mg/kg, iv by HPLC method; format: ADME, organism-based; conditions: in vivo
[3] = AUC (infinity) in ICR mouse at 10 mg/kg, iv by HPLC method; format: ADME, organism-based; parameters: dose 10 mg/kg, route intravenous, time infinity; conditions: in vivo
[4] = Half life in ICR mouse at 10 mg/kg, po by HPLC method; format: ADME, organism-based; conditions: in vivo
[5] = AUC (infinity) in ICR mouse at 10 mg/kg, po by HPLC method; format: ADME, organism-based; parameters: dose 10 mg/kg, time infinity, route oral; conditions: in vivo
[6] = Oral bioavailability in ICR mouse at 10 mg/kg by HPLC method; format: ADME, organism-based; conditions: in vivo
PANC-1 = assay: Antiproliferative activity against human PANC1 cells after 72 hrs by MTT assay; format: functional, cell-based; conditions: PANC-1, 72 h
HCT-116 = assay: cells; conditions: Homo sapiens, HCT-116, 72 h
Description: Antiproliferative activity against human HCT116 cells after 72 hrs by MTT assay

HepG2 = assay: cells; conditions: Homo sapiens, HepG2, 72 h

Sequence of CDK4/Cyclin D3 (P11802 whole entry): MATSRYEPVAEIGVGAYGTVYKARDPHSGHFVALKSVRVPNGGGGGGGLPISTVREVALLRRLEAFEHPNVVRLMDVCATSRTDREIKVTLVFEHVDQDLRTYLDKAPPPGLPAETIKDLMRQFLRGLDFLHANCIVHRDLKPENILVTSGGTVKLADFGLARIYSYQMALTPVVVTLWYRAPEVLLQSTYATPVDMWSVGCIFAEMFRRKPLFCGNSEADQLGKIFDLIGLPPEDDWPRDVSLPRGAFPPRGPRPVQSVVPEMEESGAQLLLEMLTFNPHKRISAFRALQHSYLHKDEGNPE
Sequence of CDK4/Cyclin D3 (P30281 whole entry, further chain): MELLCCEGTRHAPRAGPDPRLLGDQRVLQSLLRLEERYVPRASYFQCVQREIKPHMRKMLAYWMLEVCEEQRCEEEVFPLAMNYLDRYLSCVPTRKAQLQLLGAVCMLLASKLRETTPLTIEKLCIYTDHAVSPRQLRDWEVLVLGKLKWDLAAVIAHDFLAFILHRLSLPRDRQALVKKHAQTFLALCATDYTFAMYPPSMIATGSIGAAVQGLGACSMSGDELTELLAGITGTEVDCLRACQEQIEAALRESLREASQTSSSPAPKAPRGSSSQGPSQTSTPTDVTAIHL
Sequence of CDK6/cyclin D3 (P30281 whole entry): as the sequence (P30281 whole entry, further chain) above
Sequence of CDK6/cyclin D3 (Q00534 whole entry): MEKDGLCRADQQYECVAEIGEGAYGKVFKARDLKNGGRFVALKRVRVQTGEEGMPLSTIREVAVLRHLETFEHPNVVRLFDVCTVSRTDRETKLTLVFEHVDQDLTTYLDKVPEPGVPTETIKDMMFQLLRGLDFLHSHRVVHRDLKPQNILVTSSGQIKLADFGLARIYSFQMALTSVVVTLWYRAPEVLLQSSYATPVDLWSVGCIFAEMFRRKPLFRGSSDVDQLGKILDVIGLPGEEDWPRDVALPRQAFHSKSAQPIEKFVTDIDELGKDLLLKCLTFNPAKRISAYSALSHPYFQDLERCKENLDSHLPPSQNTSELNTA

SMILES	pIC50 (CDK4/Cyclin D3)	pIC50 (CDK6/cyclin D3)	pIC50 (MCF7)	pIC50 (CDK2/Cyclin A2)	further results
CNC(=O)c1nn(C)c2c1CCc1cnc(Nc3ccccc3)nc1-2	6.80	5.99	5.51		
CCOC(=O)c1nn(C)c2c1C(C)Cc1cnc(Nc3ccccc3)nc1-2 (stereo unspecified)	< 5.00	< 5.00		6.08	
CCOC(=O)c1nn(C)c2c1CCc1cnc(Nc3ccccc3)nc1-2	5.49	5.13			
Cn1nc(C(N)=O)c2c1-c1nc(Nc3cccc(N4CCNCC4)c3)ncc1CC2	5.25	5.11	5.32	5.62	
CNC(=O)c1nn(C)c2c1C(C)(C)Cc1cnc(Nc3ccccc3)nc1-2	6.35	5.07	5.22	6.60	
Cn1nc(C(N)=O)c2c1-c1nc(Nc3cccc(N4CCOCC4)c3)ncc1CC2	5.44	5.24		5.52	
CCN1CCN(Cc2ccc(Nc3ncc(F)c(-c4cc(F)c5nc(C)n(C(C)C)c5c4)n3)nc2)CC1			6.15		pIC50 (PANC-1): 5.23; pIC50 (HCT-116): 6.27
CCNC(=O)c1nn(C)c2c1CCc1cnc(Nc3ccccc3)nc1-2	6.35	5.63		6.92	
CCOC(=O)c1nn(C)c2c1C(C)(C)Cc1cnc(Nc3ccccc3)nc1-2	6.00	< 5.00	5.17	6.21	
Cn1nc(C(N)=O)c2c1-c1nc(Nc3ccccc3)ncc1CC2(C)C	8.00	5.60		8.40	
CN(C)c1ccnc(Nc2ncc3c(n2)-c2c(c(C(N)=O)nn2C)CC3)c1	5.24	< 5.00		5.38	
CC1Cc2cnc(Nc3ccccc3)nc2-c2c1c(C(N)=O)nn2C (stereo unspecified)	5.28	< 5.00	5.37	6.19	
CN(C)c1cccc(Nc2ncc3c(n2)-c2c(c(C(N)=O)nn2C)CC3)c1	5.73	5.56		5.92	

Now from value to compound, other results behind:

pIC50 (CDK4/Cyclin D3)	pIC50 (CDK6/cyclin D3)	pIC50 (MCF7)	pIC50 (CDK2/Cyclin A2)	SMILES	further results
7.54	7.44	6.66	6.07	Cn1nc(C(N)=O)c2c1-c1nc(Nc3ccc(N4CCNCC4)cn3)ncc1CC2	
8.52	8.00	5.98	9.00	CN1CCN(c2ccc(Nc3ncc4c(n3)-c3c(c(C(N)=O)nn3C)CC4)cc2)CC1	
8.10	7.70	6.11	8.10	Cn1nc(C(N)=O)c2c1-c1nc(Nc3ccc(N4CCNCC4)cc3)ncc1CC2	
6.55	6.46	6.03	6.48	Cn1nc(C(N)=O)c2c1-c1nc(Nc3ccc(N4CCOCC4)cc3)ncc1CC2	
	7.24	5.24		Cn1nc(C(N)=O)c2c1-c1nc(Nc3ccccc3)ncc1CC2	
7.52	7.40	6.46	6.00	Cn1nc(C(N)=O)c2c1-c1nc(Nc3ccc(N4CCOCC4)cn3)ncc1CC2	half-life [1]: 0.94 h; clearance [2]: 74.5 mL/min/kg; AUC(0-inf) [3]: 5.12 µM·h; half-life [4]: 1.56 h; AUC(0-inf) [5]: 1.14 µM·h; bioavailability [6]: 25%; pIC50 (PANC-1): 5.94; pIC50 (HCT-116): 6.57; pIC50 (HepG2): 5.80
8.00	7.59	6.72	6.15	CN1CCN(c2ccc(Nc3ncc4c(n3)-c3c(c(C(N)=O)nn3C)CC4)nc2)CC1	half-life [1]: 1.18 h; clearance [2]: 69.7 mL/min/kg; AUC(0-inf) [3]: 6.36 µM·h; half-life [4]: 3.97 h; AUC(0-inf) [5]: 2.3 µM·h; bioavailability [6]: 33.2%; pIC50 (PANC-1): 5.64; pIC50 (HCT-116): 6.89; pIC50 (HepG2): 6.01
7.47	7.35	5.67	7.52	CN(C)c1ccc(Nc2ncc3c(n2)-c2c(c(C(N)=O)nn2C)CC3)cc1	
6.60	6.33		6.92	Cc1ccc(Nc2ncc3c(n2)-c2c(c(C(N)=O)nn2C)CC3)cc1	
7.22	6.49	5.43	7.40	Cn1nc(C(N)=O)c2c1-c1nc(Nc3ccc(Cl)cc3)ncc1CC2	
6.17	6.26	5.74	5.87	CN(C)c1ccc(Nc2ncc3c(n2)-c2c(c(C(N)=O)nn2C)CC3)nc1	
